These results are taken from patent US12479840B2, “HMG-CoA reductase degradation inducing compound” (Uppthera, priority 2020, dated 2025).

The first assay addresses T1, HMG-CoA reductase (Homo sapiens, UniProt P04035).
T1 construct: endogenous in cells; host or cells: HepG2 (Korea Cell Line Bank)
T1 sequence (P04035 1-888): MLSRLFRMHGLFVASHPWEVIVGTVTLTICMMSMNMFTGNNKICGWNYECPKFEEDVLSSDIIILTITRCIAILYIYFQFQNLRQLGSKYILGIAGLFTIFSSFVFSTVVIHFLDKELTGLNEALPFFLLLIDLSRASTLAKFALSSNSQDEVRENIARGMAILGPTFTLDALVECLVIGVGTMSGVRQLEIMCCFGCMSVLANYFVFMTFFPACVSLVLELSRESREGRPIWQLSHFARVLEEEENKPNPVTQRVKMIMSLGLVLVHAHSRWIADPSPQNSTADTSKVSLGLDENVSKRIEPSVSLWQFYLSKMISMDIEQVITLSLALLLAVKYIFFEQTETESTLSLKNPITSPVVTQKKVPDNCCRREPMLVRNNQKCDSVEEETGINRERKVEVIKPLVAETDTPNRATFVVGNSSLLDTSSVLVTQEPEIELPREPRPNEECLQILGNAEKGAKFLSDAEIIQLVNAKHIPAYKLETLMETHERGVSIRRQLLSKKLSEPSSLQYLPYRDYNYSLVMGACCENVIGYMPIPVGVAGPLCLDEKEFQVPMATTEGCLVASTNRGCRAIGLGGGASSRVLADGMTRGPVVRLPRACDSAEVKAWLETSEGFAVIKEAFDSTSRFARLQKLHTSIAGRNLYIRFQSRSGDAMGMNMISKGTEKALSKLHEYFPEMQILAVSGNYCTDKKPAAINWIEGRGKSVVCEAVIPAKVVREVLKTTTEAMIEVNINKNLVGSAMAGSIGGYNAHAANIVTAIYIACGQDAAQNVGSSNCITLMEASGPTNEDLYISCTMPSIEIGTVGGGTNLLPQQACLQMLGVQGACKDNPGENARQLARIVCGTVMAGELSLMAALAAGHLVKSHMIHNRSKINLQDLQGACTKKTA
In words: HMG-CoA reductase (HMGCR) degradation in HepG2 cells by western blotting. In kind it is cell-based. The following applies: treated for 18 hours, ratio of HMG-CoA reductase to GAPDH. In short, it runs like this:
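Western blot read-out: HMGCR protein probed (1:500, 16 hours at 4° C) alongside GAPDH loading control on 15 μg BCA-normalised RIPA lysates. Lysates came from HepG2 cells (P105–P110) exposed for 18 hours to a 10-point, three-fold series starting at 3 μM.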
As to `Cc1ncsc1-c1ccc(CNC(=O)[C@@H]2C[C@@H](O)CN2C(=O)[C@@H](NC(=O)C2(F)CC2)C(C)(C)C)c(OCCOCCOCCNC(=O)O[C@H]2C[C@@H](C)C=C3C=C[C@H](C)[C@H](CC[C@@H]4C[C@@H](O[Si](C)(C)C(C)(C)C)CC(=O)O4)[C@H]32)c1` [Compound 28, (1S,3R,7S,8S,8aR)-8-(2-((2R,4R)-4-((tert-butyldimethylsilyl)oxy)-6-oxotetrahydro-2H-pyran-2-yl)ethyl)-3,7-dimethyl-1,2,3,7,8,8a-hexahydronaphthalen-1-yl (2-(2-(2-(2-(((2S,4R)-1-((S)-2-(1-fluorocyclopropane-1-carboxamido)-3,3-dimethylbutanoyl)-4-hydroxypyrrolidine-2-carboxamido)methyl)-5-(4-methylthiazol-5-yl)phenoxy)ethoxy)ethoxy)ethyl)carbamate], the DC50 was below 50 nM.
With `Cc1ncsc1-c1ccc(CNC(=O)[C@@H]2C[C@@H](O)CN2C(=O)[C@@H](NC(=O)C2(F)CC2)C(C)(C)C)c(OCCOCCOCCOCCNC(=O)O[C@H]2C[C@@H](C)C=C3C=C[C@H](C)[C@H](CC[C@@H]4C[C@@H](O[Si](C)(C)C(C)(C)C)CC(=O)O4)[C@H]32)c1` [Compound 29, (1S,3R,7S,8S,8aR)-8-(2-((2R,4R)-4-((tert-butyldimethylsilyl)oxy)-6-oxotetrahydro-2H-pyran-2-yl)ethyl)-3,7-dimethyl-1,2,3,7,8,8a-hexahydronaphthalen-1-yl (2-(2-(2-(2-(2-(((2S,4R)-1-((S)-2-(1-fluorocyclopropane-1-carboxamido)-3,3-dimethylbutanoyl)-4-hydroxypyrrolidine-2-carboxamido)methyl)-5-(4-methylthiazol-5-yl)phenoxy)ethoxy)ethoxy)ethoxy)ethyl)carbamate], the DC50 lay in the range of 50 to 500 nM.
The same measure, in the same setting: then `Cc1ncsc1-c1ccc(CNC(=O)[C@@H]2C[C@@H](O)CN2C(=O)[C@@H](NC(=O)C2(F)CC2)C(C)(C)C)c(OCCOCCOCCOCCOCCNC(=O)O[C@H]2C[C@@H](C)C=C3C=C[C@H](C)[C@H](CC[C@@H]4C[C@@H](O[Si](C)(C)C(C)(C)C)CC(=O)O4)[C@H]32)c1` [Compound 30, (1S,3R,7S,8S,8aR)-8-(2-((2R,4R)-4-((tert-butyldimethylsilyl)oxy)-6-oxotetrahydro-2H-pyran-2-yl)ethyl)-3,7-dimethyl-1,2,3,7,8,8a-hexahydronaphthalen-1-yl (14-(2-(((2S,4R)-1-((S)-2-(1-fluorocyclopropane-1-carboxamido)-3,3-dimethylbutanoyl)-4-hydroxypyrrolidine-2-carboxamido)methyl)-5-(4-methylthiazol-5-yl)phenoxy)-3,6,9,12-tetraoxatetradecyl)carbamate], with 50 to 500 nM.

The assay is the same for the next values; noted with them: treated for 18 hours, ratio of HMG-CoA reductase to GAPDH, read-out: DC50.
As to `Cc1ncsc1-c1ccc(CNC(=O)[C@@H]2C[C@@H](O)CN2C(=O)[C@@H](NC(=O)C2(F)CC2)C(C)(C)C)c(OCCOCCOCCNC(=O)O[C@H]2C[C@@H](C)C=C3C=C[C@H](C)[C@H](CC[C@@H]4C[C@@H](O)CC(=O)O4)[C@H]32)c1` [Compound 24, (1S,3R,7S,8S,8aR)-8-(2-((2R,4R)-4-hydroxy-6-oxotetrahydro-2H-pyran-2-yl)ethyl)-3,7-dimethyl-1,2,3,7,8,8a-hexahydronaphthalen-1-yl (2-(2-(2-(2-(((2S,4R)-1-((S)-2-(1-fluorocyclopropane-1-carboxamido)-3,3-dimethylbutanoyl)-4-hydroxypyrrolidine-2-carboxamido)methyl)-5-(4-methylthiazol-5-yl)phenoxy)ethoxy)ethoxy)ethyl)carbamate], the half-maximal degradation concentration (DC50) was below 50 nM.
`Cc1ncsc1-c1ccc(CNC(=O)[C@@H]2C[C@@H](O)CN2C(=O)[C@@H](NC(=O)C2(F)CC2)C(C)(C)C)c(OCCOCCOCCOCCNC(=O)O[C@H]2C[C@@H](C)C=C3C=C[C@H](C)[C@H](CC[C@@H]4C[C@@H](O)CC(=O)O4)[C@H]32)c1` [Compound 25, (1S,3R,7S,8S,8aR)-8-(2-((2R,4R)-4-hydroxy-6-oxotetrahydro-2H-pyran-2-yl)ethyl)-3,7-dimethyl-1,2,3,7,8,8a-hexahydronaphthalen-1-yl (2-(2-(2-(2-(2-(((2S,4R)-1-((S)-2-(1-fluorocyclopropane-1-carboxamido)-3,3-dimethylbutanoyl)-4-hydroxypyrrolidine-2-carboxamido)methyl)-5-(4-methylthiazol-5-yl)phenoxy)ethoxy)ethoxy)ethoxy)ethyl)carbamate]: the DC50 is below 50 nM.
Turning to `Cc1ncsc1-c1ccc(CNC(=O)[C@@H]2C[C@@H](O)CN2C(=O)[C@@H](NC(=O)C2(F)CC2)C(C)(C)C)c(OCCOCCOCCOCCOCCNC(=O)O[C@H]2C[C@@H](C)C=C3C=C[C@H](C)[C@H](CC[C@@H]4C[C@@H](O)CC(=O)O4)[C@H]32)c1` [Compound 26, (1S,3R,7S,8S,8aR)-8-(2-((2R,4R)-4-hydroxy-6-oxotetrahydro-2H-pyran-2-yl)ethyl)-3,7-dimethyl-1,2,3,7,8,8a-hexahydronaphthalen-1-yl (14-(2-(((2S,4R)-1-((S)-2-(1-fluorocyclopropane-1-carboxamido)-3,3-dimethylbutanoyl)-4-hydroxypyrrolidine-2-carboxamido)methyl)-5-(4-methylthiazol-5-yl)phenoxy)-3,6,9,12-tetraoxatetradecyl)carbamate], the half-maximal degradation concentration (DC50) is below 50 nM.
Same read-out and setting: the figure for `Cc1ncsc1-c1ccc(CNC(=O)[C@@H]2C[C@@H](O)CN2C(=O)[C@@H](NC(=O)C2(F)CC2)C(C)(C)C)c(OCCOCCNC(=O)O[C@H]2C[C@@H](C)C=C3C=C[C@H](C)[C@H](CC[C@@H]4C[C@@H](O[Si](C)(C)C(C)(C)C)CC(=O)O4)[C@H]32)c1` [Compound 27, (1S,3R,7S,8S,8aR)-8-(2-((2R,4R)-4-((tert-butyldimethylsilyl)oxy)-6-oxotetrahydro-2H-pyran-2-yl)ethyl)-3,7-dimethyl-1,2,3,7,8,8a-hexahydronaphthalen-1-yl (2-(2-(2-(((2S,4R)-1-((S)-2-(1-fluorocyclopropane-1-carboxamido)-3,3-dimethylbutanoyl)-4-hydroxypyrrolidine-2-carboxamido)methyl)-5-(4-methylthiazol-5-yl)phenoxy)ethoxy)ethyl)carbamate] is below 50 nM.
Same read-out and setting: then `CN[C@@H](C)C(=O)N[C@H](C(=O)N1CCC[C@H]1c1nc(C(=O)c2cccc(OCCOCCOCCNC(=O)O[C@H]3C[C@@H](C)C=C4C=C[C@H](C)[C@H](CC[C@@H]5C[C@@H](O)CC(=O)O5)[C@H]43)c2)cs1)C1CCCCC1` [Compound 31, (1S,3R,7S,8S,8aR)-8-(2-((2R,4R)-4-hydroxy-6-oxotetrahydro-2H-pyran-2-yl)ethyl)-3,7-dimethyl-1,2,3,7,8,8a-hexahydronaphthalen-1-yl (2-(2-(2-(3-(2-((S)-1-((S)-2-cyclohexyl-2-((S)-2-(methylamino)propanamido)acetyl)pyrrolidin-2-yl)thiazole-4-carbonyl)phenoxy)ethoxy)ethoxy)ethyl)carbamate], with below 50 nM; and `CN[C@@H](C)C(=O)N[C@H](C(=O)N1CCC[C@H]1c1nc(C(=O)c2cccc(OCCOCCOCCOCCNC(=O)O[C@H]3C[C@@H](C)C=C4C=C[C@H](C)[C@H](CC[C@@H]5C[C@@H](O)CC(=O)O5)[C@H]43)c2)cs1)C1CCCCC1` [Compound 32, (1S,3R,7S,8S,8aR)-8-(2-((2R,4R)-4-hydroxy-6-oxotetrahydro-2H-pyran-2-yl)ethyl)-3,7-dimethyl-1,2,3,7,8,8a-hexahydronaphthalen-1-yl (2-(2-(2-(2-(3-(2-((S)-1-((S)-2-cyclohexyl-2-((S)-2-(methylamino)propanamido)acetyl)pyrrolidin-2-yl)thiazole-4-carbonyl)phenoxy)ethoxy)ethoxy)ethoxy)ethyl)carbamate], with below 50 nM; and `CN[C@@H](C)C(=O)N[C@H](C(=O)N1CCC[C@H]1c1nc(C(=O)c2cccc(OCCOCCOCCOCCOCCNC(=O)O[C@H]3C[C@@H](C)C=C4C=C[C@H](C)[C@H](CC[C@@H]5C[C@@H](O)CC(=O)O5)[C@H]43)c2)cs1)C1CCCCC1` [Compound 33, (1S,3R,7S,8S,8aR)-8-(2-((2R,4R)-4-hydroxy-6-oxotetrahydro-2H-pyran-2-yl)ethyl)-3,7-dimethyl-1,2,3,7,8,8a-hexahydronaphthalen-1-yl (14-(3-(2-((S)-1-((S)-2-cyclohexyl-2-((S)-2-(methylamino)propanamido)acetyl)pyrrolidin-2-yl)thiazole-4-carbonyl)phenoxy)-3,6,9,12-tetraoxatetradecyl)carbamate], with below 50 nM.
